The subject of one assay is Klebsiella pneumoniae. Description: microbe, parasite or virus in culture. The following applies: ATCC 700603, 18 h, ASSAY_TEST Inhibition of Bacterial Growth, detection method Absorption (OD600), MEDIA CAMHB, plate type 384well, NBS, CORNING #3640.
The test system of a further assay is Acinetobacter baumannii. Put plainly: microbe, parasite or virus in culture. As to conditions: ATCC 19606, 18 h, ASSAY_TEST Inhibition of Bacterial Growth, detection method Absorption (OD600), MEDIA CAMHB, plate type 384well, NBS, CORNING #3640.
In the next assay the test system is Staphylococcus aureus. Description: microbe, parasite or virus in culture. The following applies: ATCC 43300, 18 h, ASSAY_TEST Inhibition of Bacterial Growth, detection method Absorption (OD600), MEDIA CAMHB, plate type 384well, NBS, CORNING #3640.
The next assay has as its system Escherichia coli. Put plainly: microbe, parasite or virus in culture. The following applies: ATCC 25922, 18 h, ASSAY_TEST Inhibition of Bacterial Growth, detection method Absorption (OD600), MEDIA CAMHB, plate type 384well, NBS, CORNING #3640.
For the next assay, the system named is Candida albicans. Put plainly: microbe, parasite or virus in culture. As to conditions: ATCC 90028, ASSAY_TEST Inhibition of Fungal Growth, detection method Absorption (OD530), plate type 384well, NBS, CORNING #3640.
The test system of a further assay is Pseudomonas aeruginosa. Put plainly: microbe, parasite or virus in culture. The following applies: ATCC 27853, 18 h, ASSAY_TEST Inhibition of Bacterial Growth, detection method Absorption (OD600), MEDIA CAMHB, plate type 384well, NBS, CORNING #3640.
In the next assay the test system is HEK293. Description: cells. The format is functional, Homo sapiens, ATCC CRL1573. As to conditions: Homo sapiens, ATCC CRL1573, HEK293; ASSAY_TEST Inhibition of Cell Viability; detection method Resazurin; Fluorescence (ex560/em590); MEDIA DMEM with 10% FBS; plate type 384well; TC; CORNING #3712; time 18 hr; read-out: CC50. (In general: Resazurin is reduced to fluorescent resorufin, in cell work by metabolically active cells.)

The term CC50 denotes the concentration at which the toxic effect on the cells reaches its halfway point.

≈ marks a conversion by molar mass, not a printed value.

Description for Acinetobacter baumannii: Antibacterial activity against Acinetobacter baumannii ATCC 19606 (CO-ADD:GN_034); MIC in CAMBH media using NBS plates, by OD600
Description for Candida albicans: Antifungal activity against Candida albicans ATCC 90028 (CO-ADD:FG_001); MIC in YNB media using NBS plates, by OD630
Description for Cryptococcus neoformans: Antifungal activity against Cryptococcus neoformans H99 ATCC 208821 (CO-ADD:FG_002); MIC in YNB media using NBS plates, by Resazurin OD(600-570)
Description for Escherichia coli: Antibacterial activity against Escherichia coli ATCC 25922 (CO-ADD:GN_001); MIC in CAMBH media using NBS plates, by OD(600)
Description for Klebsiella pneumoniae: Antibacterial activity against Klebsiella pneumoniae MDR ATCC 70063 (CO-ADD:GN_003); MIC in CAMBH media using NBS plates, by OD(600)
Description for Pseudomonas aeruginosa: Antibacterial activity against Pseudomonas aeruginosa ATCC 27853 (CO-ADD:GN_042); MIC in CAMBH media using NBS plates, by OD(600)
Description for Staphylococcus aureus: Antibacterial activity against Staphylococcus aureus MRSA ATCC 43300 (CO-ADD:GP_020); MIC in CAMBH media, using NBS plates, by OD(600)

Turning to `Cn1cc(NC(=O)c2ccc(/C=C/c3ccncc3)cc2)cc1C(=O)Nc1cc(C(=O)NCCN2CCOCC2)n(CCCCl)c1.O=C(O)C(F)(F)F.O=C(O)C(F)(F)F`, the MIC is 16 µg/mL in the assay on Cryptococcus neoformans; greater than 32 µg/mL with Klebsiella pneumoniae; greater than 32 µg/mL against Acinetobacter baumannii; greater than 32 µg/mL against Staphylococcus aureus; greater than 32 µg/mL in the assay with Escherichia coli; greater than 32 µg/mL in the assay on Candida albicans. Moreover, the MIC against Pseudomonas aeruginosa is greater than 32 µg/mL. Further, in the assay on HEK293, the 50% cytotoxic concentration (CC50) came to 2.7 µg/mL.

On to `COc1ccc(/C=C/c2ccc(C(=O)Nc3cc(C(=O)Nc4cc(C(=O)NCCN5CCOCC5)n(C)c4)n(C)c3)cn2)cc1.O=C(O)C(F)(F)F.O=C(O)C(F)(F)F`, for which the MIC against Cryptococcus neoformans, in the assay on Klebsiella pneumoniae, with Acinetobacter baumannii, against Staphylococcus aureus, in the assay on Escherichia coli and against Candida albicans was greater than 32 µg/mL each time. This compound came in with an MIC in the assay with Pseudomonas aeruginosa greater than 32 µg/mL. Also, in the assay on HEK293, the CC50 came out at 27.1 µg/mL.

Regarding `Cn1cc(NC(=O)c2ccc(/C=C/c3cnc4ccccc4c3)cc2)cc1C(=O)Nc1nc(C(=O)NCCN2CCOCC2)c(CCc2ccccc2)s1.O=C(O)C(F)(F)F.O=C(O)C(F)(F)F`, the MIC against Cryptococcus neoformans, in the assay on Klebsiella pneumoniae, against Acinetobacter baumannii, in the assay on Staphylococcus aureus, against Escherichia coli and in the assay on Candida albicans was greater than 32 µg/mL in each case. Further, the MIC with Pseudomonas aeruginosa is greater than 32 µg/mL. Also, the CC50 in the assay on HEK293 was greater than 32 µg/mL.

For the compound `Cn1cc(NC(=O)c2ccc(/C=C/c3ccncc3)cc2)cc1C(=O)Nc1cc(C(=O)NCCN2CCOCC2)n(CCCN2CCN(Cc3cccc4ccccc34)CC2)c1.O=C(O)C(F)(F)F.O=C(O)C(F)(F)F.O=C(O)C(F)(F)F.O=C(O)C(F)(F)F`, the MIC in the assay on Cryptococcus neoformans was 2 µg/mL; in the assay with Klebsiella pneumoniae, greater than 32 µg/mL; with Acinetobacter baumannii, greater than 32 µg/mL; against Staphylococcus aureus, greater than 32 µg/mL; against Escherichia coli, greater than 32 µg/mL; in the assay on Candida albicans, 32 µg/mL. Besides, the MIC with Pseudomonas aeruginosa was greater than 32 µg/mL. The CC50 with HEK293 was 2.03 µg/mL.

On to `COCCOC1CCN(CCNC(=O)c2cc(NC(=O)c3cc(NC(=O)c4ccc(/C=C/c5ccc(OC)cc5)nc4)cn3C)cn2C)CC1`, for which the MIC against Cryptococcus neoformans is greater than 32 µg/mL; in the assay with Klebsiella pneumoniae, greater than 32 µg/mL; in the assay with Acinetobacter baumannii, greater than 32 µg/mL; in the assay with Staphylococcus aureus, 2 µg/mL; in the assay with Escherichia coli, greater than 32 µg/mL; in the assay with Candida albicans, greater than 32 µg/mL. Further, the MIC in the assay with Pseudomonas aeruginosa was greater than 32 µg/mL. Also, the CC50 in the assay on HEK293 was found to be 3 µg/mL (≈ 4.39 µM).

As to `Cn1cc(NC(=O)c2cc(NC(=O)c3ccccc3)cn2C)cc1C(=O)NCCC(=N)N.O=C(O)C(F)(F)F`, the MIC in the assay on Cryptococcus neoformans, in the assay on Klebsiella pneumoniae, in the assay on Acinetobacter baumannii, against Staphylococcus aureus, in the assay on Escherichia coli and with Candida albicans was greater than 32 µg/mL throughout. This compound displayed an MIC with Pseudomonas aeruginosa greater than 32 µg/mL. Also, in the assay with HEK293, the cytotoxic concentration (CC50) was 7.43 µg/mL.

Take `COc1ccc(C(=N)Nc2cc(C(=O)Nc3cc(C(=O)NCCN4CCOCC4)n(CCCc4cn(CCc5ccccc5)nn4)c3)n(C)c2)cc1.O=C(O)C(F)(F)F.O=C(O)C(F)(F)F`: the MIC in the assay on Cryptococcus neoformans, with Klebsiella pneumoniae, against Acinetobacter baumannii, with Staphylococcus aureus, in the assay with Escherichia coli and against Candida albicans was greater than 32 µg/mL each time. The compound further gave an MIC in the assay with Pseudomonas aeruginosa greater than 32 µg/mL. In addition, the CC50 in the assay on HEK293 was greater than 32 µg/mL.

For the compound `COc1ccc(/C=C/c2ccc(C(=O)Nc3cc(C(=O)Nc4cc(C(=O)NCCN5CCOCC5)n(CCCc5cn(CCc6ccccc6)nn5)c4)n(C)c3)cn2)cc1`, the MIC against Cryptococcus neoformans, against Klebsiella pneumoniae, in the assay with Acinetobacter baumannii, with Staphylococcus aureus, in the assay on Escherichia coli and against Candida albicans was greater than 32 µg/mL each time. Moreover, in the assay with Pseudomonas aeruginosa, the MIC is greater than 32 µg/mL. Moreover, in the assay with HEK293, the CC50 is greater than 32 µg/mL.

As to `COCCOC1CCN(CCNC(=O)c2cc(NC(=O)c3cc(NC(=O)c4ccc(/C=C/c5ccc(OC)cc5)cc4)cn3C)cn2C)CC1.O=S(=O)(O)O`, the MIC is greater than 32 µg/mL in the assay with Cryptococcus neoformans; greater than 32 µg/mL with Klebsiella pneumoniae; greater than 32 µg/mL against Acinetobacter baumannii; 16 µg/mL with Staphylococcus aureus; greater than 32 µg/mL against Escherichia coli; greater than 32 µg/mL against Candida albicans. This compound registered an MIC in the assay with Pseudomonas aeruginosa greater than 32 µg/mL. Moreover, the CC50 with HEK293 came out at 1.57 µg/mL.

Turning to `COc1cccc(C(=N)Nc2cc(C(=O)Nc3nc(C(=O)NCCN4CCOCC4)c(CCc4ccccc4)s3)n(C)c2)c1.O=C(O)C(F)(F)F.O=C(O)C(F)(F)F`, the MIC was 16 µg/mL against Cryptococcus neoformans; greater than 32 µg/mL with Klebsiella pneumoniae; greater than 32 µg/mL in the assay on Acinetobacter baumannii; 32 µg/mL in the assay on Staphylococcus aureus; greater than 32 µg/mL in the assay with Escherichia coli; greater than 32 µg/mL against Candida albicans. The MIC with Pseudomonas aeruginosa was greater than 32 µg/mL. Moreover, in the assay on HEK293, the CC50 was determined as 2.59 µg/mL.

For `COc1cccc(/C=C/c2ccc(C(=O)Nc3cc(C(=O)Nc4cc(C(=O)NCCN5CCC(O)CC5)n(C)c4)n(C)c3)cc2)c1.O=C(O)C(F)(F)F`, the MIC was greater than 32 µg/mL against Cryptococcus neoformans; greater than 32 µg/mL in the assay on Klebsiella pneumoniae; greater than 32 µg/mL with Acinetobacter baumannii; 16 µg/mL against Staphylococcus aureus; greater than 32 µg/mL with Escherichia coli; greater than 32 µg/mL against Candida albicans. Besides, the MIC against Pseudomonas aeruginosa was greater than 32 µg/mL. Moreover, the CC50 in the assay with HEK293 was determined as 11.7 µg/mL.

With `Cn1cc(NC(=O)c2ccc(/C=C/c3ccncc3)cc2)cc1C(=O)Nc1cc(C(=O)NCCN2CCOCC2)n(CCCN2CCOCC2)c1.O=C(O)C(F)(F)F.O=C(O)C(F)(F)F`, the MIC was greater than 32 µg/mL against Cryptococcus neoformans; greater than 32 µg/mL in the assay on Klebsiella pneumoniae; greater than 32 µg/mL in the assay with Acinetobacter baumannii; 4 µg/mL in the assay on Staphylococcus aureus; greater than 32 µg/mL against Escherichia coli; greater than 32 µg/mL in the assay with Candida albicans. This compound also yielded an MIC against Pseudomonas aeruginosa greater than 32 µg/mL. In the assay on HEK293, the CC50 was 4.65 µg/mL.

Turning to `COc1cccc(/C=C/c2ccc(C(=O)Nc3cc(C(=O)Nc4cc(C(=O)NCCN5CCOCC5)n(CCCc5cn(CCc6ccccc6)nn5)c4)n(C)c3)cc2)c1.O=C(O)C(F)(F)F`, the MIC with Cryptococcus neoformans was 32 µg/mL; against Klebsiella pneumoniae it was greater than 32 µg/mL; in the assay with Acinetobacter baumannii, greater than 32 µg/mL; against Staphylococcus aureus, greater than 32 µg/mL; in the assay on Escherichia coli, greater than 32 µg/mL; against Candida albicans, greater than 32 µg/mL. This compound came in with an MIC against Pseudomonas aeruginosa greater than 32 µg/mL. The CC50 in the assay on HEK293 is greater than 32 µg/mL.

On to `COc1ccc(/C=C/c2ccc(C(=O)Nc3cc(C(=O)Nc4cc(C(=O)NCCN5CCC(OC)CC5)n(C)c4)n(C)c3)cc2)cc1.O=C(O)C(F)(F)F`, for which the MIC against Cryptococcus neoformans, against Klebsiella pneumoniae, against Acinetobacter baumannii, in the assay with Staphylococcus aureus, in the assay on Escherichia coli and against Candida albicans was greater than 32 µg/mL throughout. This compound also yielded an MIC against Pseudomonas aeruginosa greater than 32 µg/mL. Besides, the CC50 in the assay on HEK293 is 6.43 µg/mL.

`Cn1cc(NC(=O)c2cc(NC(=N)c3ccccc3)cn2C)cc1C(=O)NCCC(=N)N.O=C(O)C(F)(F)F.O=C(O)C(F)(F)F`: the MIC against Cryptococcus neoformans, with Klebsiella pneumoniae, against Acinetobacter baumannii, against Staphylococcus aureus, against Escherichia coli and in the assay on Candida albicans was greater than 32 µM in each case. Besides, the MIC in the assay with Pseudomonas aeruginosa is greater than 32 µM. The CC50 in the assay with HEK293 is greater than 32 µg/mL.

Turning to `Cn1cc(NC(=O)c2ccc(/C=C/c3ccncc3)cc2)cc1C(=O)Nc1cc(C(=O)NCCN2CCOCC2)n(CCCSc2ccccc2)c1.O=C(O)C(F)(F)F.O=C(O)C(F)(F)F`, the MIC in the assay on Cryptococcus neoformans, in the assay on Klebsiella pneumoniae, against Acinetobacter baumannii, against Staphylococcus aureus, in the assay on Escherichia coli and in the assay with Candida albicans was greater than 32 µg/mL in each case. In the assay on Pseudomonas aeruginosa, this compound came in with an MIC greater than 32 µg/mL. The CC50 with HEK293 is greater than 32 µg/mL.
